# From article PMC8635623, “A click chemistry approach to pleuromutilin derivatives, evaluation of anti-MRSA activity and elucidation of binding mode by surface plasmon resonance and molecular docking” (Journal of Enzyme Inhibition and Medicinal Chemistry, 2021)
# Key:
# Test in all cases: MIC/MBC by broth micro dilution
# MRSA ATCC 43300 = assay type: cell-based, methicillin-resistant S. aureus; conditions: Staphylococcus aureus; for MIC: 37 °C, 24 h, read-out: MIC; for MBC: lowest concentration reducing viable counts by 99.9%
# Method: (§1) All the synthesised 1,2,3-triazole linked pleuromutilin analogues were screened for in vitro antibacterial activities against methicillin-resistant S. aureus (ATCC 43300), S. aureus (ATCC 29213), and two clinical strains of S. aureus (AD3 and 144, isolated from Guangdong Province, China). The MICs and MBCs of the synthesised pleuromutilin derivatives along with pleuromutilin and tiamulin used as the reference antibacterial drugs, were determined by the broth micro dilution methods according to the Clinical and Laboratory Standards Institute (CLSI)[18].
# (§2) The MIC of these novel pleuromutilin derivatives against methicillin-resistant S. aureus (ATCC 43300), S. aureus (ATCC 29213), S. aureus (AD3) and S. aureus (144) were determined by using pleuromutilin and tiamulin as positive control. MIC values were determined by the broth micro dilution methods in accordance with the Clinical and Laboratory Standards Institute (2012). Stock solutions of these compounds were dissolved in methanol to make a stock solution with a concentration of 1280 µg/mL. The working solutions (640 µg/mL) were obtained by diluting stock solutions in sterile Mueller-Hinton (MH) broth. The bacterial solution and solutions of these compounds with a final concentration of 0.016–32 µg/mL were distributed into 96-well plates, with a total volume of 200 µL. Three parallel experiments for each compound concentration. The plates were incubated at 37 °C for 24 h.
# (§3) MBC values were determined according to CLSI (2003) and previously report with slightly modification[18]^,[28]^,[31]. After obtaining the MIC results, the 96-well plates were incubated at 37 °C for 24 h. 100 µL of the bacterial solution from the wells with no visible growth was inoculated on MH agar plates. The MH agar plates were incubated at 37 °C for colony count. The MBC was determined as the lowest concentration of compound, which reduces the viable counts for 99.9%.
# S. aureus ATCC 29213 = assay type: cell-based; conditions: Staphylococcus aureus; for MIC: ATCC29213, 37 °C, 24 h; for MBC: ATCC29213, lowest concentration reducing viable counts by 99.9%
# Method: as §1, §2, §3
# S. aureus 144 = assay type: cell-based; conditions: Staphylococcus aureus, S. aureus 144 (clinical strain); for MIC: 37 °C, 24 h; for MBC: lowest concentration reducing viable counts by 99.9%
# Method: as §1, §2, §3
# S. aureus AD3 = assay type: cell-based; conditions: Staphylococcus aureus, S. aureus AD3 (clinical strain); for MIC: 37 °C, 24 h; for MBC: lowest concentration reducing viable counts by 99.9%
# Method: as §1, §2, §3
Structure (SMILES),MIC (MRSA ATCC 43300) [µg/mL],MBC (MRSA ATCC 43300) [µg/mL],MIC (S. aureus ATCC 29213) [µg/mL],MBC (S. aureus ATCC 29213) [µg/mL],MIC (S. aureus 144) [µg/mL],MBC (S. aureus 144) [µg/mL],MIC (S. aureus AD3) [µg/mL],MBC (S. aureus AD3) [µg/mL]
"C=C[C@]1(C)C[C@@H](OC(=O)Cn2cc(CN3CCN(c4ccc(Cl)cc4)CC3)nn2)[C@]2(C)[C@H](C)CC[C@]3(CCC(=O)[C@H]32)[C@@H](C)[C@@H]1O [Compound 58, 22-(2-(4-(4-(4-Chlorophenyl)-piperazin-1-yl)-methyl)-1H-1,2,3-triazol-1-yl)-22-deoxy pleuromutilin]",4,4,8,16,16,32,8,32
"C=C[C@]1(C)C[C@@H](OC(=O)Cn2cc(CN3CCN(c4ccccc4OC)CC3)nn2)[C@]2(C)[C@H](C)CC[C@]3(CCC(=O)[C@H]32)[C@@H](C)[C@@H]1O [Compound 59, 22-(2-(4-(4-(2-Methoxyphenyl)-piperazin-1-yl)-methyl)-1H-1,2,3-triazol-1-yl)-22-deoxy pleuromutilin]",4,4,8,8,8,16,4,16
"C=C[C@]1(C)C[C@@H](OC(=O)Cn2cc(CN3CCN(c4cccc(OC)c4)CC3)nn2)[C@]2(C)[C@H](C)CC[C@]3(CCC(=O)[C@H]32)[C@@H](C)[C@@H]1O [Compound 60, 22-(2-(4-(4-(3-Methoxyphenyl)-piperazin-1-yl)-methyl)-1H-1,2,3-triazol-1-yl)-22-deoxy pleuromutilin]",4,8,8,8,8,16,4,16
"C=C[C@]1(C)C[C@@H](OC(=O)Cn2cc(CN3CCN(c4ccc(OC)cc4)CC3)nn2)[C@]2(C)[C@H](C)CC[C@]3(CCC(=O)[C@H]32)[C@@H](C)[C@@H]1O [Compound 61, 22-(2-(4-(4-(4-Methoxyphenyl)-piperazin-1-yl)-methyl)-1H-1,2,3-triazol-1-yl)-22-deoxy pleuromutilin]",4,16,4,8,8,16,4,8
"C=C[C@]1(C)C[C@@H](OC(=O)Cn2cc(CN3CCN(c4ccccc4O)CC3)nn2)[C@]2(C)[C@H](C)CC[C@]3(CCC(=O)[C@H]32)[C@@H](C)[C@@H]1O [Compound 65, 22-(2-(4-(4-(2-Hydroxyphenyl)-piperazin-1-yl)-methyl)-1H-1,2,3-triazol-1-yl)-22-deoxy pleuromutilin]",4,8,8,8,8,16,4,8
"C=C[C@]1(C)C[C@@H](OC(=O)Cn2cc(CN3CCN(c4cccc(O)c4)CC3)nn2)[C@]2(C)[C@H](C)CC[C@]3(CCC(=O)[C@H]32)[C@@H](C)[C@@H]1O [Compound 66, 22-(2-(4-(4-(3-Hydroxyphenyl)-piperazin-1-yl)-methyl)-1H-1,2,3-triazol-1-yl)-22-deoxy pleuromutilin]",4,8,8,16,8,16,8,32
"C=C[C@]1(C)C[C@@H](OC(=O)Cn2cc(CN3CCN(c4ccc(O)cc4)CC3)nn2)[C@]2(C)[C@H](C)CC[C@]3(CCC(=O)[C@H]32)[C@@H](C)[C@@H]1O [Compound 67, 22-(2-(4-(4-(4-Hydroxyphenyl)-piperazin-1-yl)-methyl)-1H-1,2,3-triazol-1-yl)-22-deoxy pleuromutilin]",8,16,16,32,32,32,16,> 32
"C=CC1(C)CC(OC(=O)Cn2cc(CN(C3CCCCC3)C3CCCCC3)nn2)C2(C)C(C)CCC3(CCC(=O)C32)C(C)C1O (centres unmarked) [Compound 81, 22-(2-(4-(Dicyclohexylamino)methyl)-1H-1,2,3-triazol-1-yl)-22-deoxy pleuromutilin]",4,8,8,16,8,16,8,32
"C=CC1(C)CC(OC(=O)Cn2cc(CN3CCOCC3)nn2)C2(C)C(C)CCC3(CCC(=O)C32)C(C)C1O (centres unmarked) [Compound 82, 22-(2-(4-(Morpholinomethyl)methyl)-1H-1,2,3-triazol-1-yl)-22-deoxy pleuromutilin]",8,8,16,16,16,32,16,32
"C=CC1(C)CC(OC(=O)Cn2cc(CN3CCC(O)CC3)nn2)C2(C)C(C)CCC3(CCC(=O)C32)C(C)C1O (centres unmarked) [Compound 83, 22-(2-(4-(4-Hydroxypiperidin-1-yl)methyl)-1H-1,2,3-triazol-1-yl)-22-deoxy pleuromutilin]",8,16,16,32,32,32,16,32
"C=CC1(C)CC(OC(=O)Cn2cc(CN3CCCC(CO)C3)nn2)C2(C)C(C)CCC3(CCC(=O)C32)C(C)C1O (centres unmarked) [Compound 84, 22-(2-(4-(3-(Hydroxymethyl)piperidin-1-yl)methyl)-1H-1,2,3-triazol-1-yl)-22-deoxy pleuromutilin]",8,16,16,32,32,32,16,32
"C=CC1(C)CC(OC(=O)Cn2cc(CN3CCC(CCO)CC3)nn2)C2(C)C(C)CCC3(CCC(=O)C32)C(C)C1O (centres unmarked) [Compound 85, 22-(2-(4-(4-(2-Hydroxyethyl)piperidin-1-yl)methyl)-1H-1,2,3-triazol-1-yl)-22-deoxy pleuromutilin]",8,8,16,32,16,32,16,32
"C=C[C@]1(C)C[C@@H](OC(=O)CO)[C@]2(C)[C@H](C)CC[C@]3(CCC(=O)[C@H]32)[C@@H](C)[C@@H]1O [Pleuromutilin, pleuromutilin]",2,4,4,8,2,4,2,4
